Measurements: patent US20160021921A1, “PRETERM INFANT NUTRITIONAL COMPOSITIONS CONTAINING BETA-HYDROXY-BETA-METHYLBUTYRIC ACID” (ABBOTT LABORATORIES, priority 2013, published 2016)
“Also recorded” adds a separate entry of the source.

Tests used:
Type in all cases: in vivo, neonatal pigs
S6K1 = assay: Phosphorylation of S6K1 in muscles, immunoblotting; details: one hour
Experimental: (§1) Overnight fasted neonatal pigs (5-7 days old) were infused with HMB at 0, 20, 100, or 400 μmol·kg^−1·hr^−1 HMB. Blood plasma concentrations of the following circulating substrates were measured.
(§2) At the end of the infusion, the piglets were sacrificed and the fractional protein synthesis rates were measured by measuring ^3H incorporation into protein fractions after a flooding dose of L[4-^3H]phenylalanine using the method set forth in Garlick, P. J., “A rapid and convenient technique for measuring the rate of protein synthesis in tissues by injection of [3H]Phenylalanine,” Biochem J (1980), Vol. 192, 719-723. Activation of translation initiation was measured in the stomach, duodenum, jejunum, colon, pancreas, kidney, brain and skin. The abundance of intracellular proteins involved in signaling of protein synthesis and in processes related to protein degradation was measured in tissue homogenates by immunoblotting using commercially available antibodies.

Atrogin-1 = assay: Expression of Atrogin-1 in muscles, immunoblotting; details: one hour
Experimental: as §1, §2

[1] = tested on: protein synthesis in skeletal muscles (longissimus dorsi, gastrocnemius, soleus, diaphragm); assay: Fractional protein synthesis rate in skeletal muscles, L[4-3H]phenylalanine flooding dose
Experimental: as §1, §2

e1F4E•e1F4G complex = assay: Formation of the active e1F4E•e1F4G complex in muscles (FIG. 11); details: one hour
Experimental: as §1, §2

elF2α = assay: Phosphorylation of elF2α in muscles, immunoblotting; details: one hour
Experimental: as §1, §2

[2] = tested on: protein synthesis in the lung and spleen; assay: Fractional protein synthesis rate in lung and spleen; details: 20 μmol·kg^−1·hr^−1 HMB for one hour
Experimental: as §1, §2

MURF1 = assay: Expression of MURF1 in muscles, immunoblotting; details: one hour
Experimental: as §1, §2

amino acid transporters = assay: Level of amino acid transporters in piglet tissues; details: HMB-infused piglets
Experimental: as §2

4EBP1 = assay: Phosphorylation of 4EBP1 in muscles, immunoblotting; details: one hour
Experimental: as §1, §2

eEF2 = assay: Phosphorylation of eEF2 in muscles, immunoblotting; details: one hour
Experimental: as §1, §2

LC3-II/LC3-I = assay: Ratio of LC3-II/LC3-I in muscles (autophagy/lysosomal protein degradation); details: one hour
Experimental: as §1, §2

[3] = 20 μmol·kg^−1·hr^−1 HMB, diaphragm
[4] = 20 μmol·kg^−1·hr^−1 HMB, longissimus dorsi, gastrocnemius, soleus
[5] = 100 μmol·kg^−1·hr^−1 HMB, diaphragm
[6] = 100 μmol·kg^−1·hr^−1 HMB, longissimus dorsi, gastrocnemius, soleus

SMILES: CC(C)(O)CC(=O)O [HMB, beta-hydroxy-beta-methylbutyric acid]
- phosphorylation of S6K1 (S6K1; [3]): increased
- phosphorylation of S6K1 (S6K1; [4]): increased
- phosphorylation of S6K1 (S6K1; [5]): not
- phosphorylation of S6K1 (S6K1; [6]): increased
- expression of Atrogin-1 (Atrogin-1; 20 μmol·kg^−1·hr^−1 HMB): did not affect
- expression of Atrogin-1 (Atrogin-1; 100 μmol·kg^−1·hr^−1 HMB): did not affect
- fractional rate of protein synthesis ([1]; 20 μmol·kg^−1·hr^−1 HMB, longissimus dorsi, gastrocnemius, soleus, diaphragm, P<0.05): increased; also recorded: greatest impact
- fractional rate of protein synthesis ([1]; 100 μmol·kg^−1·hr^−1 HMB, gastrocnemius, soleus, diaphragm): not significantly
- fractional rate of protein synthesis ([1]; 100 μmol·kg^−1·hr^−1 HMB, longissimus dorsi muscle, P<0.05): increased
- fractional rate of protein synthesis ([1]; 400 μmol·kg^−1·hr^−1 HMB, skeletal muscles): no significant effect; also recorded: least impact
- effectiveness in increasing protein synthesis compared with leucine ([1]; HMB 20, 100 or 400 vs leucine 400 μmol·kg^−1·hr^−1, longissimus dorsi, gastrocnemius, soleus, diaphragm, duodenum, brain): equal to or more effective; also recorded: as effective as leucine
- formation of active eIF4E•eIF4G complex (e1F4E•e1F4G complex; [3]): increased
- formation of active eIF4E•eIF4G complex (e1F4E•e1F4G complex; [4]): increased
- formation of active eIF4E•eIF4G complex (e1F4E•e1F4G complex; [5]): not
- formation of active eIF4E•eIF4G complex (e1F4E•e1F4G complex; [6]): increased
- phosphorylation of elF2a (elF2α; 20 μmol·kg^−1·hr^−1 HMB): did not affect
- phosphorylation of elF2a (elF2α; 100 μmol·kg^−1·hr^−1 HMB): did not affect
- fractional rate of protein synthesis in lung and spleen [2]: increased
- expression of MURF1 (MURF1; 20 μmol·kg^−1·hr^−1 HMB): did not affect
- expression of MURF1 (MURF1; 100 μmol·kg^−1·hr^−1 HMB): did not affect
- level of amino acid transporters (amino acid transporters): did not affect
- phosphorylation of 4EBP1 (4EBP1; [3]): increased
- phosphorylation of 4EBP1 (4EBP1; [4]): increased
- phosphorylation of 4EBP1 (4EBP1; [5]): not
- phosphorylation of 4EBP1 (4EBP1; [6]): increased
- phosphorylation of eEF2 (eEF2; 20 μmol·kg^−1·hr^−1 HMB): did not affect
- phosphorylation of eEF2 (eEF2; 100 μmol·kg^−1·hr^−1 HMB): did not affect
- ratio of LC3-II/LC3-I (LC3-II/LC3-I; 20 μmol·kg^−1·hr^−1 HMB): did not affect
- ratio of LC3-II/LC3-I (LC3-II/LC3-I; 100 μmol·kg^−1·hr^−1 HMB): did not affect
